The text below walks through data of patent US12096772B2, “Herbicidal compositions” (SYNGENTA CROP PROTECTION AG, priority 2022, dated 2024).

In this assay the test system is Amaranthus palmeri (AMAPA). The assay is described as follows: Post-emergence greenhouse percent control of Amaranthus palmeri. To be noted: herbicide alone; for Observed control 7DAA: 7 days after application; for Observed control 14DAA: 14 days after application; for Observed control 21DAA: 21 days after application. The assay is classed as in vivo. As to the method:
Seeds of Amaranthus palmeri (AMAPA) were sown in vero beach potting soil and grown in a greenhouse. The herbicides, alone and in combination, were applied post-emergence when the weeds were 3 to 4-inches along with adjuvants 2.5% v/v AMSOL® and 1% v/v AgriDex® using a spray TT110015 nozzle providing 15 gallons/acre. Percent control evaluations were performed at 7, 14, and 21 days after application.
Expected action was calculated by the Colby formula.

Regarding `CS(=O)(=O)c1ccc(C(=O)C2C(=O)CCCC2=O)c([N+](=O)[O-])c1` [Mesotrione, mesotrione], under “10 g ai/ha”, the “Observed control 7DAA” value is on record as 75%, the “Observed control 14DAA” value stood at 63% and the “Observed control 21DAA” value was found to be 62%.
For the molecule `O=c1cc(Cl)[nH]nc1-c1ccccc1` [Pyridafol, pyridafol], the “Observed control 7DAA” value was found to be 0% (2.5 g ai/ha); 0% (5 g ai/ha); 0% (10 g ai/ha); 5% (27 g ai/ha); 17% (57 g ai/ha); 23% (87 g ai/ha). In addition, the “Observed control 7DAA” value (117 g ai/ha) is 23%. For the same molecule, the “Observed control 14DAA” value runs as follows: (2.5 g ai/ha) 0%; (5 g ai/ha) 0%; (10 g ai/ha) 0%; (27 g ai/ha) 2%; (57 g ai/ha) 10%; (87 g ai/ha) 15%. The “Observed control 14DAA” value (117 g ai/ha) is reported as 17%. For the same molecule, the “Observed control 21DAA” value is 0% (2.5 g ai/ha); 0% (5 g ai/ha); 0% (10 g ai/ha); 0% (27 g ai/ha); 3% (57 g ai/ha); 13% (87 g ai/ha). Where the note is “117 g ai/ha”, the “Observed control 21DAA” value is given as 7%.
As for bicyclopyrone, for the setting “10 g ai/ha”, the “Observed control 7DAA” value came out at 72%, the “Observed control 14DAA” value was 60% and the “Observed control 21DAA” value worked out at 57%.
